# Results from PMC9395968, “Pristimerin, a triterpene that inhibits monoacylglycerol lipase activity, prevents the development of paclitaxel-induced allodynia in mice” (Frontiers in Pharmacology, 2022).
# What was measured:
# [1] = molecular target: T1, human recombinant monoacylglycerol lipase (MAGL) (Homo sapiens, UniProt Q99685); assay: colorimetric MAGL inhibitor screening kit (4-nitrophenyl acetate hydrolysis, […] nm); format: biochemical
# T1 construct: gene MGLL
# T1 sequence (Q99685 1-303): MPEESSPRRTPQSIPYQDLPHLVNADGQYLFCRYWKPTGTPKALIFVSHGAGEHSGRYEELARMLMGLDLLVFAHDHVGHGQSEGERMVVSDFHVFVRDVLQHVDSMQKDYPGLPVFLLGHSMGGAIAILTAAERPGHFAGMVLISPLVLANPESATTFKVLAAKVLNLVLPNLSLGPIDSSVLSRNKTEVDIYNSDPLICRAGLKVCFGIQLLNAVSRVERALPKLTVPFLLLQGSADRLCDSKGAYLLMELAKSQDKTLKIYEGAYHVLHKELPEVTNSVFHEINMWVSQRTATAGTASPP
# [2] = molecular target: T2, mouse monoacylglycerol lipase (MAGL) (Mus musculus, UniProt O35678); assay: fluorometric MAGL activity assay in paw skin supernatant (brain IC50 […]); format: biochemical
# T2 construct: gene Mgll
# T2 sequence (O35678 1-303): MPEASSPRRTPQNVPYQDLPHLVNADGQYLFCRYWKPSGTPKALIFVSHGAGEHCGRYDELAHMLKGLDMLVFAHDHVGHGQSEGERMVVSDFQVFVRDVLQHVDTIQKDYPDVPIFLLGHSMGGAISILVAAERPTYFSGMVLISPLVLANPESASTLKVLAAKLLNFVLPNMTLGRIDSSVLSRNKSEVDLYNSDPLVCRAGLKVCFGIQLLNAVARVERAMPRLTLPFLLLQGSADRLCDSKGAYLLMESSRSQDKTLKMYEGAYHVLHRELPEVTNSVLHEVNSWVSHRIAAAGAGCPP
smiles,measurement,setting,value
COC(=O)[C@]1(C)CC[C@]2(C)CC[C@]3(C)C4=CC=C5C(=CC(=O)C(O)=C5C)[C@]4(C)CC[C@@]3(C)[C@@H]2C1 [pristimerin],IC50,[1],0.13 µM
same,IC50,[2],0.596 µM
